For experiment [1], the system named is cervical cancer cell line HeLa. Briefly: Anti-proliferative activity in HeLa cell line. The format is cell-based. To be noted: Homo sapiens.
For experiment [2], the system named is breast cancer cell line MDA-MB-231. Nature of the experiment: Anti-proliferative activity in breast cancer cell line MDA-MB-231. The format is cell-based. As to conditions: MDA-MB-231 cell line. The source says:
Anti-proliferative activity against breast cancer cell line MDA-MB-231 was investigated using the compounds synthesized through the above Examples 1 to 4.

Experiment [3] has as its system lung cancer cell line A549. Nature of the experiment: Anti-proliferative activity in A549 cell line. The format is cell-based. As to conditions: Homo sapiens.
The test system of experiment [4] is non-small cell lung cancer cell line H1975. Nature of the experiment: Anti-proliferative activity in H1975 cell line. As to conditions: Homo sapiens, NCI-H1975. Format: cell-based.
Another experiment deals with SH-SY5Y cells. Nature of the experiment: Soft agar colony formation assay. The format is cell-based, human. To be noted: cultured 1-2 weeks. The protocol:
Anchorage-independent cell growth is a characteristic of cell carcinogenesis and indicates the ability of transformed cells to grow independently of a solid surface. The soft agar colony formation assay is a widely used method to measure the capability of anchorage-independent cell growth in vitro. Thus, the suppressive effect of Compound 9b on Anchorage-independent cell growth by soft agar colony formation assay.
SH-SY5Y cells were seeded in a 6-well plate with 1.2% agar (4×10^5 cells/well) and Compound 9b was added at concentrations of 1 μM, 3 μM and 5 μM and cultured for 1-2 weeks. DMSO (0.5%) was used as a negative control. After incubation, colonies were stained using by 0.05% crystal violet for 10 minutes. The colonies were washed by 3rd distilled water and captured.

The subject of experiment [5] is human neuroblastoma cell line SH-SY5Y. Briefly: Anti-proliferative activity in SH-SY5Y cell line. Format: cell-based. As to conditions: half maximal growth inhibition concentration, after 72 hours. The protocol:
Anti-proliferative activity against human neuroblastoma cell line SH-SY5Y, an in vitro model of human malignant metastatic neuroblastoma, was investigated using the compounds synthesized through the above Examples 1 to 4.
SH-SY5Y cells were cultured in DMEM (Dulbecco's Modified Eagle's Media) with L-glutamine supplemented with […] of streptomycin, 100 units/mL of penicillin and 10% fetal bovine serum (FBS). The cells were grown to confluence in a humidified atmosphere (37° C., 5% CO2).

Consider `O=C(NO)c1ccc(-c2nc3ccccc3s2)cc1` [Compound 9b, 4-(benzo[d]thiazol-2-yl)-N-hydroxybenzamide], for which the GI50 (usually the concentration at which growth is held to half of that of the control) is 13.5 µM in experiment [1], 3.86 µM in experiment [2] (Homo sapiens), 15.6 µM in experiment [3] and 3.71 µM in experiment [4]. The “ability of SH-SY5Y cells to form colonies” value in the experiment on SH-SY5Y cells (1 μM, 3 μM and 5 μM) was “decreased in a dose-dependent manner”. For the same compound, the “anchorage-independent cell growth of SH-SY5Y neuroblastoma” value in the experiment with SH-SY5Y cells (3 μM) is given as “almost completely inhibited”.

Compound `CCn1c(-c2ccc(C(=O)NO)cc2)nc2ccccc21` [Compound 6b, 4-(1-ethyl-1H-benzo[d]imidazol-2-yl)-N-hydroxybenzamide] returned a GI50 in experiment [2] (Homo sapiens) of 15.6 µM.

In experiment [2] (Homo sapiens), `CCCn1c(-c2ccc(C(=O)NO)cc2)nc2ccccc21` [Compound 6c, N-hydroxy-4-(1-propyl-1H-benzo[d]imidazol-2-yl)benzamide] returned a GI50 of 44.6 µM.

In experiment [2] (Homo sapiens), `O=C(NO)c1ccc(-c2nc3ccccc3o2)cc1` [Compound 9a, 4-(benzo[d]oxazol-2-yl)-N-hydroxybenzamide] registered a GI50 of 8.31 µM.

Compound `CCCn1c(-c2cccc(C(=O)NO)c2)nc2ccccc21` [Compound 14c, N-hydroxy-3-(1-propyl-1H-benzo[d]imidazol-2-yl)benzamide] had a GI50 in experiment [2] (Homo sapiens) of 62.1 µM.

`O=C(NO)c1ccc(-c2nc3ccccc3[nH]2)cc1` [Compound 5, 4-(1H-benzo[d]imidazol-2-yl)-N-hydroxybenzamide] registered a GI50 in experiment [2] (Homo sapiens) of 15.6 µM.

With `CCn1c(-c2cccc(C(=O)NO)c2)nc2ccccc21` [Compound 14b, 3-(1-Ethyl-1H-benzo[d]imidazol-2-yl)-N-hydroxybenzamide], in experiment [2] (Homo sapiens), the GI50 is over 100 µM.

As for `Cn1c(-c2cccc(C(=O)NO)c2)nc2ccccc21` [Compound 14a, N-hydroxy-3-(1-methyl-1H-benzo[d]imidazol-2-yl)benzamide], the GI50 in experiment [2] (Homo sapiens) was over 100 µM.

In the case of `O=C(NO)c1cccc(-c2nc3ccccc3s2)c1` [Compound 17b, 3-(benzo[d]thiazol-2-yl)-N-hydroxybenzamide], the concentration for 50% growth inhibition (GI50) in experiment [2] (Homo sapiens) amounted to 23.1 µM.

Take `CCCCn1c(-c2cccc(C(=O)NO)c2)nc2ccccc21` [Compound 14d, 3-(1-Butyl-1H-benzo[d]imidazol-2-yl)-N-hydroxybenzamide]: halving of growth in experiment [2] (Homo sapiens) (GI50) required 60.8 µM.

For `O=C(CCCCCCC(=O)Nc1ccccc1)NO` [SAHA, reference compound], the GI50 in experiment [2] stood at 3.16 µM; in experiment [5], 2.9 µM.

For the compound `O=C(NO)c1cccc(-c2nc3ccccc3[nH]2)c1` [Compound 13, 3-(1H-benzo[d]amidazol-2-yl)-N-hydroxybenzamide], the GI50 in experiment [2] and in experiment [5] was over 100 µM in each case.

`Cn1c(-c2ccc(C(=O)NO)cc2)nc2ccccc21` [Compound 6a, N-hydroxy-4-(1-methyl-1H-benzo[d]imidazol-2-yl)benzamide] came in with a GI50 in experiment [2] (Homo sapiens) of 40.3 µM.

Consider `CCCCn1c(-c2ccc(C(=O)NO)cc2)nc2ccccc21` [Compound 6d, 4-(1-butyl-1H-benzo[d]imidazol-2-yl)-N-hydroxybenzamide], for which, in experiment [2] (Homo sapiens), the GI50 is 35.5 µM.

Turning to `O=C(NO)c1cccc(-c2nc3ccccc3o2)c1` [Compound 17a, 3-(Benzo[d]oxazol-2-yl)-N-hydroxybenzamide], in experiment [2] (Homo sapiens), the GI50 was 47.9 µM.

The values are drawn from patent US12098134B2, “Benzo-heterocyclic compound and composition for preventing or treating cancer disease, containing same as active ingredient” (INDUSTRY ACADEMIC COOPERATION FOUNDATION KEIMYUNG UNIVERSITY, priority 2018, dated 2024).
